The results in this text go back to US8630703B2, “Treatment utilizing hydrophobic weak bases chemotherapeutic agents and illumination” (Technion Research & Development Foundation Limited, priority 2011, dated 2014).

In one series the test system is A549/K1.5 cells. As to the kind of experiment: Live cell fluorescent imaging (lysosomal localization and photodestruction). The series is classed as cell-based, Human. The note with it: for effect on lysosomal accumulation of C-1330: pre-incubation 10 mM ammonium chloride 30 min or 1 μM bafilomycin A1 60 min. The method, then:
(§1) Lysosomes and mitochondria were stained by incubating the cells 100 nM LysoTracker® Red or 100 nM MitoTracker® Red, respectively, for 1 hour. For subcellular localization of C-1330, cells were also stained with 10 μM C-1330 for 30 minutes.
(§2) Nuclear staining was performed prior to fluorescence imaging by replacing the growth medium with medium containing 2 μg/ml Hoechst 33342, followed by incubation for 10 minutes. Prior to nuclear staining, A549/K1.5 cells were incubated for 1 hour with 10 μM fumitremorgin C (FTC) to prevent efflux of Hoechst 33342 by ABCG2.
(§3) Live cell fluorescent imaging was performed using an Axiovert 200 inverted fluorescence microscope (Carl Zeiss) equipped with a digital camera. […] Light intensity was maintained at 12.5% of the maximum. The magnification used was ×630.
(§4) Cells were pre-incubated with 10 mM ammonium chloride for 30 minutes or with 1 μM bafilomycin A1 for 60 minutes, prior to being incubated with 10 μM C-1330 for 30 minutes as described hereinabove. Ammonium chloride and bafilomycin A1 remained present during the incubation with C-1330.
A549/K1.5 cells were incubated with 10 μM doxorubicin for 30 minutes, and then observed and illuminated (at 470 nm) by live cell fluorescent imaging as described in the Materials and Methods section. Upon illumination, the cells were photographed every second, in order to observe changes in the cells over time.

The subject of series [1] is A549 cells. Described as above. The series is classed as cell-based, Human. The note with it: pre-incubation 10 mM ammonium chloride 30 min or 1 μM bafilomycin A1 60 min. The method, then: as §1, §2, §3, §4
Monolayers of A549 cells were grown in glass-bottom plates and were washed in growth medium. The medium was then replaced with a special isotonic balanced salt solution lacking or containing either N,N′-dimethylthiourea (DMTU), a potent hydroxyl radical and hydrogen peroxide scavenger, L-histidine, a hydroxyl radical and singlet oxygen radical (^1O2) scavenger, or sodium azide, a singlet oxygen radical scavenger. The salt solution consisted of 10 mM HEPES pH 7.4, 120 mM NaCl, 5 mM KCl, 1 mM CaCl2, 1 mM MgCl2, and 25 mM glucose. After incubation for 1 hour, C-1330 was added to the aforementioned solution buffer for an additional 30 minutes, during which the scavengers remained present, in order to load lysosomes. The cells were then examined by fluorescent imaging as described hereinabove.

Series [2] deals with A549 cells. As to the kind of experiment: Lysosome quantification by LysoTracker Red fluorescence. In kind it is cell-based, Human. The note with it: for increase in lysosomal fluorescence compared to untreated cells: 20 μM. The procedure:
A549 cells were seeded in 96-well plates at a concentration of 500 cells/well for the 48 hour chloroquine treatment, or at a concentration of 1000 cells/well for the 24 hour chloroquine treatment, in a total volume of 100 μl of medium per well. Following an overnight incubation, chloroquine was then added at the indicated concentrations for 24 or 48 hours. Lysosomes were then stained with LysoTracker® Red, detected by fluorescent imaging as described hereinabove, and quantified using EZQuant software.

For series [3], the system named is chicken chorioallantoic membrane (CAM) vasculature. Kind of series: Chorioallantoic membrane (CAM) model of photodynamic therapy. The series is classed as in vivo. The procedure: Fertilized chicken eggs (Animalco AG) were labeled and transferred into a hatching incubator with a relative air humidity of 65% and a temperature of 37° C. The incubator was equipped with an automatic fan (Savimat). On embryonic development day (EDD) 3, a hole of approximately 3 mm in diameter was opened in the eggshell above the air pouch of the egg and covered with Parafilm® wrapping film (Pechiney) to prevent dehydration and possible infections. The eggs were then returned to the incubator in a static position until use. On EDD 11, the hole in the shell was extended to a diameter of approximately 3 cm in order to provide better access to the chorioallantoic membrane (CAM) during experiments.
Eggs were placed under an Eclipse 600 FN epi-fluorescence microscope equipped with a Plan Apo 4/0.2, working distance 20 objective (Nikon). Microscopic observation and illumination of a region of the CAM was performed as described previously [Lim et al., Photochem Photobiol 2010, 86:397-402; Lim et al., J Med Chem 2010, 53:2865-2874; Nowak-Sliwinska et al., Angiogenesis 2010, 13:281-292]. Illumination was provided by a 100 W high pressure Hg-arc lamp. Light doses were adjusted with neutral density filters and measured with a calibrated Field-Master GS power meter (Coherent Inc.). Fluorescence images were acquired with an F-view II 12-bit monochrome Peltier-cooled digital CCD camera driven with analySIS DOCU software (Soft Imaging System GmbH).
For excitation and detection of imidazoacridinones (IAs) or sunitinib, the microscope was equipped with a filter set (Nikon) characterized by excitation wavelengths of 420±20 nm and emission wavelengths of >470 nm,
After the treatment the eggs were numbered, covered and returned to the incubator. Each treatment group included 5 eggs.
Chorioallantoic membranes (CAMs) were intravenously injecting chorioallantoic membranes with 20 μl of a solution of FITC-dextran (20 kDa, 25 mg/ml). Fluorescence angiography was then performed using light from an Hg-arc lamp and light filters (Nikon) which provided excitation wavelengths of 470±20 nm and emission wavelengths of >520 nm for observing the fluorescence. In order to increase the quality of the recorded angiographs, a light absorber, in the form of India ink, was injected (30 μl) into the extra-embryonic cavity. The purpose of this second injection was to decrease the influence of the CAM auto-fluorescence background, which changes rapidly with time due to the embryo's movement. The India ink was filtered shortly before injection, using a sterile cellulose acetate membrane with 0.2 μm pores (Renner GmbH).
Photodynamic therapy (PDT) was performed at embryo development day (EDD) 11, at which stage the CAM is fully developed and contains a vessel network with a regular capillary plexus. The imidazoacridinones were intravenously injected into the main vessel of the CAM through a 33-gauge needle fitted to a 100 μl syringe (Hamilton), at a concentration of 1 mg/ml and a volume of 100 μl, which corresponds to a dose of 100 μg, or approximately 10 mg/kg embryo body weight.
One minute after injection, a region of the CAM which contained vessels of diameters in a range of 5 to 70 μm was illuminated (420±20 nm) at a light dose of 20 J/cm^2 and an irradiance of […]. […]
The illuminated area was 0.02 cm^2, as delimited by an optical diaphragm. The fluorescence of sunitinib was visible in the vasculature of the CAMs prior to PDT.

For `CCN(CC)CCNc1ccc2ncn3c4ccc(O)cc4c(=O)c1c23` [C-1311], the “lysosomal photodestruction on co-treatment with ABCG2 inhibitor” value with A549/K1.5 cells (MDR cells, 20 μM C-1311 + 10 μM fumitremorgin C, 2 hours, illumination) is on record as “intense lysosomal photodestruction”. For the compound `Cl.N` [ammonium chloride], the “effect on lysosomal accumulation of C-1330” value with A549 cells [1] and with A549/K1.5 cells (A549/K1.5) was “completely abolished” throughout. Regarding `CO/C1=C\C(C)=C\[C@@H](C)[C@@H](O)[C@@H](C)C/C(C)=C/C=C/[C@H](OC)[C@@H]([C@@H](C)[C@@H](O)[C@H](C)[C@@]2(O)C[C@@H](O)[C@H](C)[C@@H](C(C)C)O2)OC1=O` [bafilomycin A1], the “effect on lysosomal accumulation of C-1330” value with A549 cells [1] and in the series with A549/K1.5 cells (A549/K1.5) was “completely abolished” in each case. As for `CCN(CC)CCCC(C)Nc1ccnc2cc(Cl)ccc12` (centres unmarked) [chloroquine], the “increase in lysosomal fluorescence compared to untreated cells” value in the series with A549 cells [2] (24 hours) amounted to 8.4 fold; with A549 cells [2] (48 hours) it was 21.7 fold. Also, in the series on A549 cells [2] (20, 50 or 100 μM, 24 hours), the “increase in the lysosomes, dose relation” value is on record as “dose-dependent”.

On to `COc1cccc2c1C(=O)c1c(O)c3c(c(O)c1C2=O)C[C@@](O)(C(=O)CO)C[C@@H]3O[C@H]1C[C@H](N)[C@H](O)[C@H](C)O1` [doxorubicin], for which, in the series on A549/K1.5 cells (A549/K1.5, 10 μM, 470 nm, 20 seconds of illumination), the “lysosomal photodestruction upon illumination” value is reported as “nearly all of the lysosomes had ruptured”.

For the compound `CCN(CC)CCNC(=O)c1c(C)[nH]c(/C=C2\C(=O)Nc3ccc(F)cc32)c1C` [sunitinib, reference compound], the “location of drug fluorescence in CAM” value in series [3] (administered intravenously) is “visible within the vasculature”; in series [3] (administered topically), “visible exclusively outside the vasculature”.
